Legend:
hIDO1 = biological target: T1, hIDO1 (Homo sapiens, UniProt P14902); assay: IDO inhibition activity based on HEK293T cells transfected with hIDO1 plasmid; format: cell-based; conditions: HEK293T cells transfected with hIDO1, 16 hours incubation, OD 480 nm; read-out: IDO inhibitory activity of HEK293T cells (IC50)
T1 construct: expressed in transfected cells; host or cells: HEK293T (293T) cells, transient transfection with Fugene 6
Description: 1. Test Method for IDO Inhibition Activity Based on HEK293T Cells:
The first step: cell transfection and plating. 5×10^6 293T cells were separately seeded in two T75 flasks and incubated overnight at 37° C. in a 5% CO2 incubator. […] of a mixture containing 1.5 μg of hIDO1 plasmid and 300 μL of opti-MEM was made into a mixture A; 18 μL of liposome fugene 6 was mixed with 300 μL of opti-MEM to prepare a mixture B, and allowed to stand at room temperature for 5 minutes. Mixture A and Mix B were mixed, placed at room temperature for 20 minutes, added to a 293T culture flask, and the other flask was used as a control and incubated overnight at 37° C. in a 5% CO2 incubator. The medium was discarded, digested with trypsin, and after digestion, the cells were neutralized with serum-containing medium, and the cells were blown to cause the cells to fall off. Pipette the cell suspension into a centrifuge tube and centrifuge at a speed of 800-1000 for 1-3 minutes. Aspirate the cell supernatant from the centrifuge tube. Add an appropriate volume of medium to the tube and gently blister to resuspend the cells. Count using a Vi-Cell XR cytometer. Adjust the cell suspension to the appropriate concentration. The cell suspension was added to a white-well 96-well plate at 80 μL/well. The second step: preparation and addition of the compound. Compounds were formulated in DMSO at 600 μM and the compounds were diluted in DMSO according to a multiple of the following table to give 6 concentration gradients of the compound. The 200× compound prepared in DMSO was formulated into a 10× dilution solution in proportion to the corresponding cell culture medium. Add 10 μL of 10× corresponding compound dilution and 10 μL of 10×TRP to each well, except for Min. Incubate for 16 hours in a 37° C. incubator. The third step: detection and analysis. Cell morphology was observed under an inverted microscope. 80 μL of the supernatant was added to a 3894 plate, and 10 μL of 6.1 N trichloroacetic acid was added to each well, shaken for 2 minutes, and placed in a 50-degree incubator for 30 minutes. Centrifuged at 2500 rpm for 10 minutes. Take 70 μL of the supernatant and transfer to a 3635 UV plate, add 70 μL of the reaction solution, and shake for 2 minutes to make the reaction uniform. Use EnSpire (PE) to detect data with an OD of 480 nm. The cell culture plate 3903 was allowed to stand at room temperature for 30 minutes. 100 μL/well of the cell activity detecting reagent was added to the culture plate. Mix on a shaker for 2 minutes to induce cell lysis. The 96-well plate was allowed to stand at room temperature for 10 minutes to stabilize the luminescence signal. Paste the white base film on the bottom of the plate and the plate was tested in Flexstation 3 (the relevant setting is: Illumination, integration time 500 ms). Record the experimental results obtained from the analysis.
The IC50 value is expressed by: A: IC50 value≤10 nM; B: 10 nM<IC50 value≤50 nM; C: 50 nM<IC50 value≤100 nM; D: IC50 value>100 nM.

IDO = biological target: T2, IDO (Homo sapiens, UniProt P14902); assay: Hela cell-based IDO inhibitory activity test (IFNγ added); conditions: Hela cells with IFNγ, 48 hours incubation, OD 480 nm
T2 construct: endogenous in cells; host or cells: HeLa cells treated with IFNγ
Description: 2. Hela Cell-Based IDO Inhibitory Activity Test Method
The first step: cell plating. Prepare complete medium and mix well. Cell lines that are in good growth state are selected. Remove the cell culture flask from the incubator and check the cell name, media type and cell generation number on the bottle. The medium was discarded, digested with trypsin, and after digestion, the cells were neutralized with serum-containing medium, and the cells were blown to cause the cells to fall off. Pipette the cell suspension into a centrifuge tube and centrifuge at a speed of 800-1000 for 3-5 minutes. Aspirate the cell supernatant from the centrifuge tube. Add an appropriate volume of medium to the tube and gently blister to resuspend the cells. Count using a Vi-Cell XR cytometer. Adjust the cell suspension to the appropriate concentration. The cell suspension was added to a white-well 96-well plate at 80 μl/well according to the schematic below. The second step: preparation and addition of the compound. Compounds were formulated in DMSO at 600 μM and the compounds were diluted in DMSO according to a multiple of the following table to give 6 concentration gradients of the compound. The 200× compound prepared in DMSO was formulated into a 10× dilution solution in proportion to the corresponding cell culture medium. After 24 hours of cell seeding, 10 μL of 10× corresponding compound dilution and 10 μL of 10×IFNγ were added to each well. Incubate for 48 hours in a 37° C. incubator. The third step: detection and analysis. Cell morphology was observed under an inverted microscope. 80 μL of the supernatant was added to a 3894 plate, 10 μL of 6.1 N trichloroacetic acid was added to each well, shaken for 2 minutes, and placed in a 50-degree incubator for 30 minutes. Centrifuge, 2500 rpm for 10 minutes.
Take 70 μL of the supernatant and transfer to a 3635 UV plate, add 70 μL of the reaction solution, and shake for 2 minutes to make the reaction uniform. Use EnSpire (PE) to detect data with an OD of 480 nm. The cell culture plate 3903 was allowed to stand at room temperature for 30 minutes. 100 μL/well of the cell activity detecting reagent was added to the culture plate. Mix on a shaker for 2 minutes to induce cell lysis. The 96-well plate was allowed to stand at room temperature for 10 minutes to stabilize the luminescence signal. Paste the white base film on the bottom of the plate and tested with Flexstation3 plate (the relevant setting is: Illumination, integration time 500 ms). Record the experimental results obtained from the analysis.
The IC50 value is expressed in the following manner: […]

T2 sequence (P14902 whole entry): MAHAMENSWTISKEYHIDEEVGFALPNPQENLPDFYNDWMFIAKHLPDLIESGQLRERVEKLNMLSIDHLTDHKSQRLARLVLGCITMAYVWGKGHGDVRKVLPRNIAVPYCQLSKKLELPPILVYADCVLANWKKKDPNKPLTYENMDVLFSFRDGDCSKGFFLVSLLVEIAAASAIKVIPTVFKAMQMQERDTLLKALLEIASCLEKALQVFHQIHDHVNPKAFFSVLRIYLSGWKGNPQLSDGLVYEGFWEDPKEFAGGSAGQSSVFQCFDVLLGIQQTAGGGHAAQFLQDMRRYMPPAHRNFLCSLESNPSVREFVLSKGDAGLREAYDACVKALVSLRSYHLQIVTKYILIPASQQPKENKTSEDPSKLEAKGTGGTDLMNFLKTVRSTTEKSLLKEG
T1 sequence (P14902 whole entry): as above

## O=C(C[C@@H]1C[C@@H]2C[C@H](c3ccnc4ccc(F)cc34)C[C@@H]2C1)NC1CCC(F)(F)CC1 [Compound 12]
hIDO1
  IC50: > 100 nM
IDO
  IC50: 25 to 100 nM

## C#Cc1ccc(NC(=O)C(C)[C@H]2C[C@H]3C[C@@H](c4ccnc5ccc(F)cc45)C[C@H]3C2)nc1 (stereo partly shown) [Compound 74]
hIDO1
  IC50: 10 to 50 nM
IDO
  IC50: ≤ 5 nM

## O=C(C[C@@H]1C[C@@H]2C[C@@H](Oc3ccnc4ccccc34)C[C@@H]2C1)Nc1ccc(Cl)cc1 [Compound 51]
hIDO1
  IC50: > 100 nM
IDO
  IC50: > 100 nM

## C/C(C(=O)Nc1ccc(Cl)cc1)=C1\C[C@@H]2C[C@H](c3ccnc4ccc(F)cc34)C[C@@H]2C1 [Compound 68]
hIDO1
  IC50: ≤ 10 nM
IDO
  IC50: ≤ 5 nM

## CC(C(=O)Nc1ccc(Cl)nc1)[C@H]1C[C@H]2C[C@@H](c3ccnc4ccc(F)cc34)C[C@H]2C1 (stereo partly shown) [Compound 27]
hIDO1
  IC50: 10 to 50 nM
IDO
  IC50: ≤ 5 nM

## COc1ccc(NC(=O)C(C)[C@H]2C[C@H]3C[C@@H](c4ccnc5ccc(F)cc45)C[C@H]3C2)cn1 (stereo partly shown) [Compound 6]
hIDO1
  IC50: 10 to 50 nM
IDO
  IC50: 5 to 25 nM

## CC(C)(C(=O)Nc1ccc(C#N)cn1)[C@H]1C[C@H]2C[C@@H](c3ccnc4ccc(F)cc34)C[C@H]2C1 [Compound 88]
hIDO1
  IC50: ≤ 10 nM
IDO
  IC50: ≤ 5 nM

## CC(C(=O)Nc1ccc(Cl)nc1)N1C[C@H]2C[C@@H](c3ccnc4ccc(F)cc34)C[C@H]2C1 (stereo partly shown) [Compound 45]
hIDO1
  IC50: 10 to 50 nM
IDO
  IC50: 5 to 25 nM

## CC(C(=O)Nc1ccc(C#N)nc1)[C@H]1C[C@H]2C[C@@H](c3ccnc4ccc(F)cc34)C[C@H]2C1 (stereo partly shown) [Compound 72]
hIDO1
  IC50: ≤ 10 nM
IDO
  IC50: ≤ 5 nM

## O=C(C[C@@H]1C[C@@H]2CC(c3ccnc4ccc(F)cc34)=C[C@@H]2C1)Nc1ccc(Cl)cc1 [Compound 11]
hIDO1
  IC50: 10 to 50 nM
IDO
  IC50: ≤ 5 nM

## CC(C(=O)Nc1cccc(Cl)c1)[C@H]1C[C@H]2C[C@@H](c3ccnc4ccc(F)cc34)C[C@H]2C1 (stereo partly shown) [Compound 7]
hIDO1
  IC50: 10 to 50 nM
IDO
  IC50: 5 to 25 nM

## C[C@@H](C(=O)Nc1ccc(Cl)cc1)[C@H]1C[C@H]2C[C@@H](c3ccnc4ccc(F)cc34)C[C@H]2C1 (single isomer, unassigned) [Compound 1A]
hIDO1
  IC50: ≤ 10 nM
IDO
  IC50: ≤ 5 nM

## O=C(C[C@@H]1C[C@H]2CC(c3ccnc4ccc(F)cc34)C[C@H]2C1)Nc1ccc(Cl)nc1 (stereo partly shown) [Compound 22]
hIDO1
  IC50: 10 to 50 nM
IDO
  IC50: 5 to 25 nM

## O=C(C[C@H]1C[C@@H]2C[C@H](c3ccnc4ccc(F)cc34)C[C@@H]2C1)Nc1ccc(Cl)cc1 [Compound 5]
hIDO1
  IC50: ≤ 10 nM
IDO
  IC50: ≤ 5 nM

## CC(C(=O)Nc1ccc(Cl)cc1)[C@@H]1C[C@H]2C[C@@H](c3ccnc4ccc(F)cc34)C[C@H]2C1 (stereo partly shown) [Compound 4]
hIDO1
  IC50: 10 to 50 nM
IDO
  IC50: ≤ 5 nM

## C#Cc1ccc(NC(=O)C(C)(C)[C@H]2C[C@H]3C[C@@H](c4ccnc5ccc(F)cc45)C[C@H]3C2)nc1 [Compound 86]
hIDO1
  IC50: ≤ 10 nM
IDO
  IC50: ≤ 5 nM

## CC(C(=O)Nc1ccc(Cl)cn1)[C@H]1C[C@H]2CC(c3ccnc4ccc(F)cc34)C[C@H]2C1 (mixture of isomers) [Compound 26]
hIDO1
  IC50: 10 to 50 nM
IDO
  IC50: ≤ 5 nM

## CC#Cc1ccc(NC(=O)C(C)(C)[C@H]2C[C@H]3C[C@@H](c4ccnc5ccc(F)cc45)C[C@H]3C2)nc1 [Compound 90]
hIDO1
  IC50: ≤ 10 nM
IDO
  IC50: ≤ 5 nM

## O=C(Cc1ccc(CC(C(=O)Nc2ccc(Cl)cc2)[C@H]2CC[C@@H](c3ccnc4ccc(F)cc43)CC2)cc1)NO (stereo partly shown) [Compound 10]
hIDO1
  IC50: > 100 nM
IDO
  IC50: > 100 nM

## C#Cc1ccc(NC(=O)C(C)[C@H]2C[C@H]3C[C@@H](c4ccnc5ccc(F)cc45)C[C@H]3C2)cc1 (stereo partly shown) [Compound 34]
hIDO1
  IC50: ≤ 10 nM
IDO
  IC50: ≤ 5 nM

— US11266640B2, “Polycyclic compound acting as IDO inhibitor and/or IDO-HDAC dual inhibitor” (Hangzhou Innogate Pharma Co., Ltd., priority 2017, dated 2022)
